Results reported in US8802705B2, “Pharmaceutical containing PPAR delta agonist” (Senju Pharmaceutical Co., Ltd., priority 2007, dated 2014).

Experiments:
Format in all cases: cell-based
[1] = system: Normal human corneal epithelial cells; assay: Effect on increase of cell number of normal human corneal epithelial cells (Experimental Example 4, Cell Counting Kit-8); details: for effect on cell number of normal human corneal epithelial cells (in words): 0.01-1 μM, conclusion of the test; for cell number increase rate: relative to non-addition group = 100%, mean ± SD, N = 4
Method: (§1) Normal human corneal epithelial cells (KURABO) were used.
As a test substance, compound B or compound C was used. Compound B and compound C were each dissolved in ethanol (Wako Pure Chemical Industries, Ltd.) to a concentration 200-fold of the final concentration in a culture medium, and the solution was stored at −80° C. until immediately before use.
As a cell culture medium for consideration of the cell number-increasing effect by compound B and compound C, a culture medium (basal medium) obtained by adding insulin, hydrocortisone and transferrin contained in HCGS growth additive set (KURABO) to EpiLife (KURABO) was used.
Normal human corneal epithelial cells cryopreserved in liquid nitrogen were thawed and the cell number was counted. The total amount thereof was transferred to EpiLife added with all of the HCGS growth additive set (insulin, epidermal growth factor mEGF derived from mouse, hydrocortisone, transferrin, bovine brain hypophysis extract) (4 mL, complete medium), and suspended well therein. The cell suspension was seeded on a fibronectin-coated 24 well plate (Becton Dickinson) at a cell number of 2×10^4 cells/500 μL/well (1×10^4 cells/cm^2 since bottom area was 2 cm^2). After completion of cell seeding, the culture plate was incubated in an incubator set to 37° C., 5% CO2, 95% air and 100% humidity for 24 hr, and the culture medium was changed to 400 μL of the basal medium (EpiLife added with insulin, hydrocortisone and transferrin from HCGS growth additives). After 24 hr thereafter, the culture medium was changed to the following culture medium (each 400 μL). • [1] basal medium alone (non-addition group) • [2] basal medium+mEGF (final concentration: 1 ng/mL; positive control group) • [3] basal medium+compound B (final concentration: 0.01 μM, 0.1 μM, 1 μM; compound B addition group) • [4] basal medium+compound C (final concentration: 0.01 μM, 0.1 μM, 1 μM; compound C addition group)
(§2) Ethanol (5 μL) was added to 1 mL each of culture media and [2] to uniformly set the ethanol concentration of all culture media to 0.5%.
(§3) After 24 hr from the start of the stimulation with compound B or compound C, the culture supernatant was removed from each well, and a basal medium added with 10% Cell Counting Kit-8 (DOJINDO) was dispensed to each well by 200 μL. After dispensing, the culture plate was transferred to an incubator set to 37° C., 5% CO2, 95% air and 100% humidity and incubated for 2 hr. The supernatant (100 μL) was transferred to a 96 well culture plate for tissue culture (Corning), and the absorbance of each well at 450 nm was measured with a microplate reader (Dainippon Sumitomo Pharma Co., Ltd.), and used as an index of cell number increase.
(§4) The values of the positive control group and the compound B or compound C addition group were calculated based on the average absorbance of the non-addition group as 100%, and the non-addition group was compared with the compound B or compound C addition group and positive control group according to the Dunnett multiple comparison test (one-tailed). A critical value of less than 5% as a result of the test was judged as significant.

[2] = system: monkey meibomian gland epithelial cells; assay: Effect on cell number increase in meibomian gland epithelial cells (Experimental Example 3, Cell Counting Kit-8); details: medium renewed every 48 hr (3 x 48 hr), relative to non-addition group = 100%, mean ± SD, N = 5 or 10
From the text: An eyelid of monkey isolated and stored in D-PBS was transferred to a clean bench, and cell preparation was aseptically performed as follows.
The isolated eyelid was immersed in 80% ethanol for 30 sec, washed three times with D-PBS added with 1% penicillin-streptomycin (Invitrogen), and transferred to a minimum essential medium (MEM; Invitrogen). The adipose tissue and muscular tissue surrounding the meibomian glandular tissue of the eyelid were removed under a stereomicroscope. They were transferred to MEM containing 0.3 U/mL collagenase A (Roche Diagnostics) and 2.4 U/mL dispase II (Roche Diagnostics), and shaken at 37° C. for 4 hr and at 4° C. overnight. The enzyme-treated tissue was set under a stereomicroscope, and the eyelash and eyelid connective tissue were removed to isolate the meibomian glandular tissue. Trypsin-EDTA (4 mL, Invitrogen) was added to the isolated glandular tissue, and the mixture was incubated at 37° C. for 10 min. After incubation, MEM (5 mL) containing 10% FBS (Invitrogen) was added thereto to stop the enzyme reaction, and the tissue constituting cells were dispersed by repeated suction and discharge of the mixture 5 times using an injection syringe equipped with a 21 G injection needle. The cell dispersion was passed through 100 μm and 40 μm nylon filters (Cell Strainer; Falcon), and cell mass and the like contained therein which could not be treated with the enzyme were removed. The cell suspension passed through the filters was collected in a centrifuge tube (50 mL) and centrifuged at room temperature, 1,500 rpm for 5 min. To the cell layers containing the object cells obtained by the centrifugation was added 80 μL of D-PBS containing 0.5% bovine serum albumin (BSA; Sigma-Aldrich), and the cells were sufficiently suspended therein. Anti-Fibroblast Microbeads (Militenyi Biotec, 20 μL) was added thereto, and the mixture was left standing at room temperature for 30 min. After completion of the reaction with an antibody, 2 mL of D-PBS containing 0.5% BSA was added thereto, and the mixture was centrifuged again at room temperature, 1,500 rpm for 5 min. To the cell layers containing the object cells obtained by the centrifugation was added 1 mL of D-PBS containing 0.5% BSA, and the cells were sufficiently suspended therein. The suspension was added dropwise to LD column (Militenyi Biotec) equilibrated in advance with a column washing solution (D-PBS containing 2 mM EDTA (DOJINDO LABORATORIES) and 0.5% BSA). Then, 2 mL of the column washing solution was added dropwise to the LD column. […] The cells collected in the centrifuge tube were centrifuged at room temperature, 1,500 rpm for 5 min, and the supernatant was removed. The sediment was suspended in Defined Keratinocyte Serum Free Medium (5 mL), centrifuged at room temperature, 1,500 rpm for 5 min, and removed the supernatant. Again, the residue was suspended in DK-SFM (3 mL), centrifuged at room temperature and 1,500 rpm for 5 min, and the supernatant was removed. The cells were suspended in DK-SFM (2 mL), and seeded on a 6 well multi-well plate for cell culture, which had been treated with collagen. The seeded cells were cultured in Defined keratinocyte-Serum Free Medium (DK-SFM; Invitrogen, attached Supplement was added as instructed in the preparation protocol), cultured in an incubator (SANYO) set to 37° C., 5% CO2, 95% air, 100% humidity, and the culture medium was exchanged with a new one every 48 hr until the cells became subconfluent.
As a test substance, compound A, [4-[3-[2-(4-trifluoromethyl)phenyl-4-isopropyl-5-thiazolyl]propionyl]-2-methylphenoxy]acetic acid (hereinafter to be referred to as compound B) or [4-[3-[2-(2-hydroxy-4-chlorophenyl)-5-isopropyl-4-oxazolyl]propionyl]-2-methylphenoxy]acetic acid (hereinafter to be referred to as compound C) was used. […]

[3] = system: Normal human corneal epithelial cells; assay: Effect on increase of cell number of normal human corneal epithelial cells (Experimental Example 1, Cell Counting Kit-8); details: positive control, final concentration 1 ng/mL, 24 hr, relative to non-addition group = 100%, mean ± SD
Method: as §1
As a test substance, [3-[2-[4-isopropyl-2-(4-trifluoromethyl)phenyl-5-thiazolyl]ethyl]-5-methyl-1,2-benzisoxazol-6-yl]oxyacetic acid (hereinafter to be referred to as compound A) was used. Compound A was dissolved in ethanol (Wako Pure Chemical Industries, Ltd.) to a concentration 200-fold of the final concentration in a culture medium, and the solution was stored at −80° C. until immediately before use.
As a cell culture medium for consideration of the cell number-increasing effect by compound A, a culture medium (basal medium) obtained by adding insulin, hydrocortisone and transferrin contained in HCGS growth additive set (KURABO) to EpiLife (KURABO) was used.
Normal human corneal epithelial cells cryopreserved in liquid nitrogen were thawed and the cell number was counted. The total amount thereof was transferred to EpiLife added with all of the HCGS growth additive set (insulin, epidermal growth factor mEGF derived from mouse, hydrocortisone, transferrin, bovine brain hypophysis extract) (4 mL, complete medium), and suspended well therein. The cell suspension was seeded on a fibronectin-coated 24 well plate (Becton Dickinson) at a cell number of 2×10^4 cells/500 μL/well (1×10^4 cells/cm^2 since bottom area was 2 cm^2).
After completion of cell seeding, the culture plate was incubated in an incubator set to 37° C., 5% CO2, 95% air and 100% humidity for 24 hr, and the culture medium was changed to 400 μL of the basal medium (EpiLife added with insulin, hydrocortisone and transferrin from HCGS growth additives).
After 24 hr thereafter, the culture medium was changed to the following culture medium (each 400 μL). • [1] basal medium alone (non-addition group) • [2] basal medium+mEGF (final concentration: 1 ng/mL; positive control group) • [3] basal medium+compound A (final concentration: 0.1 nM, 1 nM, 0.01 μM, 0.1 μM; compound A addition group)
as §2
as §3, with “A,” for “B or compound C,”
as §4, with “A” for “B or compound C”

Row | Molecule | effect on cell number of normal human corneal epithelial cells (in words) [1] | cell number increase rate ([1]; 10^−6 M, 24 hr stimulation) | cell number increase rate ([1]; 10^−7 M, 24 hr stimulation) | cell number increase rate ([1]; 10^−8 M, 24 hr stimulation) | cell number increase ratio ([2]; 10^−6 M) | cell number increase ratio ([2]; 10^−7 M) | cell number increase ratio ([2]; 10^−8 M) | cell number increase rate ([1]; positive control, final concentration 1 ng/mL, 24 hr) | cell number increase rate [3]
1 | Cc1cc(C(=O)CCc2nc(-c3ccc(Cl)cc3O)oc2C(C)C)ccc1OCC(=O)O [compound C, [4-[3-[2-(2-hydroxy-4-chlorophenyl)-5-isopropyl-4-oxazolyl]propionyl]-2-methylphenoxy]acetic acid] | increase the cell number of normal human corneal epithelial cells | 260.2 ± 2.5% | 247.5 ± 14.1% | 243.3 ± 6.6% | 179.4 ± 7.5% | 175.2 ± 7.8% | 155.0 ± 11.6% |  | 
2 | mEGF: epidermal growth factor mEGF derived from mouse, from HCGS growth additive set (KURABO); positive control (NSYPGCPSSYDGYCLNGGVCMHIESLDSYTCNCVIGYSGDRCQTRDLRWWELR; UniProt P01132 977-1029, looked up) [reference compound] |  |  |  |  |  |  |  | 232.8 ± 22.5% | 147.5 ± 47.2%
3 | Cc1cc(C(=O)CCc2sc(-c3ccc(C(F)(F)F)cc3)nc2C(C)C)ccc1OCC(=O)O [compound B, [4-[3-[2-(4-trifluoromethyl)phenyl-4-isopropyl-5-thiazolyl]propionyl]-2-methylphenoxy]acetic acid] | increase the cell number of normal human corneal epithelial cells | 254.3 ± 11.7% | 256.4 ± 11.0% | 252.4 ± 34.7% | 158.8 ± 15.2% | 174.4 ± 8.9% | 155.0 ± 28.0% |  | 
